According to paper PMC10976393 (2024):

Experiments:
[1] = test system: Quadruplet G (DNA, aptamer) CCTGGGGGGGGGAGTATTGCGGGGAGGGGAAGG; test: ThT fluorescence light-up; conditions: 100 mM KCl; 50 mM Tris pH 7.5; 3- to 4-fold increase over non-G4 controls
[2] = test system: ATP Aptamer (DNA, aptamer) CCTGGGGGAGTATTGCGGAGGAAGG; test: ThT fluorescence light-up; conditions: 100 mM KCl; 50 mM Tris pH 7.5; 3- to 4-fold increase over non-G4 controls
[3] = test system: Triplet G (DNA, aptamer) CCTGGGGGGGAGTATTGCGGGAGGGAAGG; test: ThT fluorescence light-up; conditions: 100 mM KCl; 50 mM Tris pH 7.5; 3- to 4-fold increase over non-G4 controls
[4] = test system: Quadruplet G (DNA, aptamer) CCTGGGGGGGGGAGTATTGCGGGGAGGGGAAGG; test: HPLC-ESI-MS; conditions: 1 mM KCl, 100 mM TEAAc (annealed in 50 mM KCl)
[5] = test system: Triplet G (DNA, aptamer) CCTGGGGGGGAGTATTGCGGGAGGGAAGG; test: HPLC-ESI-MS; conditions: 1 mM KCl, 100 mM TEAAc (annealed in 50 mM KCl)
[6] = test system: ATP Aptamer (DNA, aptamer) CCTGGGGGAGTATTGCGGAGGAAGG; test: HPLC-ESI-MS; conditions: 1 mM KCl, 100 mM TEAAc (annealed in 50 mM KCl)
[7] = test system: Scrambled Aptamer (DNA, single strand) GTGCGCGAGTGTGAGCGAGAGTGAG; test: label-free ThT fluorescence; conditions: 100 mM KCl; 50 mM Tris pH 7.5; ThT present; slow annealing with ATP
[8] = test system: FAM-Triplet G (DNA, aptamer) TTCCTGGGGGGGAGTATTGCGGGAGGGAAGG; test: FAM fluorescence increase, single-site fit; conditions: 100 mM KCl; 50 mM Tris pH 7.5; slow annealing with ATP 0-10 μM; 0.50 μM aptamer
[9] = test system: FAM-ATP Aptamer (DNA, aptamer) TTCCTGGGGGAGTATTGCGGAGGAAGG; test: FAM fluorescence increase, single-site fit; conditions: 100 mM KCl; 50 mM Tris pH 7.5; slow annealing with ATP 0-10 μM; 0.50 μM aptamer
[10] = test system: Triplet G (DNA, aptamer) CCTGGGGGGGAGTATTGCGGGAGGGAAGG; test: label-free ThT fluorescence increase, single-site fit; conditions: 100 mM KCl; 50 mM Tris pH 7.5; ThT 0.5 μM present; slow annealing with ATP; apparent
[11] = test system: FAM-Quadruplet G (DNA, aptamer) TTCCTGGGGGGGGGAGTATTGCGGGGAGGGGAAGG; test: FAM fluorescence increase, single-site fit; conditions: 100 mM KCl; 50 mM Tris pH 7.5; slow annealing with ATP 0-10 μM; 0.50 μM aptamer
[12] = test system: ATP Aptamer (DNA, aptamer) CCTGGGGGAGTATTGCGGAGGAAGG; test: label-free ThT fluorescence increase, single-site fit; conditions: 100 mM KCl; 50 mM Tris pH 7.5; ThT 0.5 μM present; slow annealing with ATP; apparent
[13] = test system: GAT (DNA, single strand) GATAGCGTCACTCGATCT; test: label-free ThT fluorescence; conditions: 100 mM KCl; 50 mM Tris pH 7.5; ThT present; slow annealing with ATP
[14] = test system: Quadruplet G (DNA, aptamer) CCTGGGGGGGGGAGTATTGCGGGGAGGGGAAGG; test: label-free ThT fluorescence increase, single-site fit; conditions: 100 mM KCl; 50 mM Tris pH 7.5; ThT 0.5 μM present; slow annealing with ATP; apparent
[15] = test system: ATP Aptamer-FAM (DNA, aptamer) TTCCTGGGGGAGTATTGCGGAGGAAGG; test: FAM fluorescence increase, single-site fit; conditions: 100 mM KCl; 50 mM Tris pH 7.5; slow annealing with ATP 0-10 μM; 0.50 μM aptamer
[16] = G4:ATP:ThT 1:5:5 mixed, ternary complex with ATP
[17] = 1 mM Tris, G4:ATP 1:5 mixed, also with ThT

| binding [1] | binding [2] | binding [3] | binding [4, 16] | binding [5, 16] | binding [6, 16] | binding [7] | Kd [8] [µM] | Kd [9] [µM] | Kd [10] [µM] | binding [4, 17] | Kd [11] [µM] | Kd [12] [µM] | binding [5, 17] | binding [13] | Kd [14] [µM] | binding [6, 17] | Kd [15] [µM] | SMILES |
| --- | --- | --- | --- | --- | --- | --- | --- | --- | --- | --- | --- | --- | --- | --- | --- | --- | --- | --- |
| yes | yes | yes | yes | yes | yes | – | – | – | – | – | – | – | – | – | – | – | – | Cc1ccc2c(c1)sc(-c1ccc(N(C)C)cc1)[n+]2C |
| – | – | – | – | – | – | no | 0.040 | 0.15 | 0.071 | yes | 0.042 | 0.83 | yes | no | 0.17 | yes | 0.62 | Nc1ncnc2c1ncn2[C@@H]1O[C@H](COP(=O)(O)OP(=O)(O)OP(=O)(O)O)[C@@H](O)[C@H]1O |
